Measured values as given in patent US20020006954A1, “Desmethyl tocopherols for preventing or slowing degenerative neurological diseases” (Oklahoma Medical Research Foundation, priority 2000, published 2002).
Where two headings read alike, the source gives them in different places. Values belong to the compound of their own block, whether it stands above or below them.

Key:
[1] = tested on: α-ketoglutarate dehydrogenase (αKGDH); experiment: Protection of αKGDH activity in rat brain mitochondria exposed to SIN-1; assay type: biochemical
Description: FIG. 5 is a graph showing rat brain mitochondria were exposed to 0.4 mM SIN-1 for 1 H after addition of tocopherol. (.) α-toc; (▪) γ-toc. The scale bars labeled [α]norm and [γ]norm indicate the normal endogenous quantities of α-toc and γ-toc, respectively, in human brain.
Mitochondria were isolated from adult rat brain then sonicated briefly in the presence of either αT or γT, or an ethanol vehicle. Mitochondria were then exposed to SIN-1, which generates NO and superoxide simultaneously at a known rate (7). Combination of NO and superoxide yields ONOO^− in situ (discussed above). Enzyme activity is destroyed by peroxynitrite and superoxide but not by NO (19).

[2] = tested on: Primary cortical rat neurons; experiment: Neurotoxicity assay, cortical neurons exposed to SNP, LDH release; assay type: cell-based; conditions: SNP 10 μM, 24 hours
Description: Cerebrocortical neurons were exposed to the indicated concentration of SNP for 24 hours. Viability was assessed by release of lactate dehydrogenase (LDH) by nonviable cells.
γ-Tocopherol was further assessed for protective ability in a neurotoxicity assay where nitrative stress was imposed. […] Media was removed and cells were then washed and medium was replaced with fresh, tocopherol-free medium.

occlusive thrombus = conditions: rats, cited from earlier work; for delay of time to occlusive thrombus: 29% FeCl3 patch on abdominal aorta
[3] = cited from earlier work; for increase of own plasma tocopherol level above baseline: rats, 100 mg/kg/day for 10 days
[4] = cited from earlier work; for effect of αT supplementation on systemic γT: oral supplementation
Alzheimer's Disease = conditions: one clinical study; cited from earlier work
C3H/10T½ fibroblasts = conditions: methylcholanthrene-treated C3H/10T½ fibroblasts; cited from earlier work
[5] = liposomes exposed to ONOO−; cited from earlier work
systemic lipid oxidation = conditions: rats fed tocopherol two weeks after iron-dextran; cited from earlier work
platelet aggregation = conditions: rats, 100 mg/kg/day for 10 days; cited from earlier work
superoxide dismutase = conditions: rats; cited from earlier work
endothelial cells = conditions: cited from earlier work
[6] = rat brain mitochondria, 400 μM SIN-1, 1 h

decrease of αKGDH activity ([1]; 400 μM SIN-1, one hour, rat brain mitochondria): approximately 50%
Structure (SMILES): Nc1c[n+](N2CCOCC2)no1 [SIN-1, reference compound]

Structure (SMILES): Cc1c(C)c2c(c(C)c1O)CC[C@@](C)(CCC[C@H](C)CCC[C@H](C)CCCC(C)C)O2 [αT, alpha tocopherol, reference compound]
concentration offering as much protection as 50-100 nM of γT ([1]; 400 μM SIN-1): 1 to 10 µM | tocopherol concentration of maximal protection of αKGDH [1, 6]: about 1 μM | protection of neurons from SNP toxicity (LDH release) ([2]; 10 μM tocopherol): ineffective | delay of time to occlusive thrombus (occlusive thrombus; 100 mg/kg/day for 10 days): 25% | increase of own plasma tocopherol level above baseline [3]: 2 fold | absorption by the gut ([4]; in vivo): absorbed equally well | effect of αT supplementation on systemic γT [4]: decreases systemic γT concentration | effect of αT supplementation on systemic γT ([4]; listed as α-tocopherol): depletes the human body of γ-tocopherol | effect on progression of Alzheimer's Disease (Alzheimer's Disease): decreases the progression of Alzheimer's Disease (AD) marginally

concentration offering as much protection as 1-10 μM of αT ([1]; 400 μM SIN-1): 50 to 100 nM | protection of αKGDH in side-by-side comparison ([1]; at all concentrations tested): more protective than αT | protection of αKGDH relative to the corresponding concentration of αT ([1]; concentrations near 100 nM, 400 μM SIN-1): approximately 5 times | maximal protection of αKGDH relative to maximal protection by αT [1, 6]: approximately 2.5 times | tocopherol concentration of maximal protection of αKGDH [1, 6]: about 1 μM
Structure (SMILES): Cc1c(O)cc2c(c1C)O[C@](C)(CCC[C@H](C)CCC[C@H](C)CCCC(C)C)CC2 [γT, gamma tocopherol]
protection of neurons from SNP toxicity (LDH release) ([2]; 200 nM tocopherol): significantly protected | inhibition of neoplastic transformation relative to αT (C3H/10T½ fibroblasts): 4 fold | inhibition of lipid hydroperoxide formation relative to αT [5]: twice as effective | effectiveness at inhibiting systemic lipid oxidation relative to αT (systemic lipid oxidation): approximately 35% | delay of time to occlusive thrombus (occlusive thrombus; 100 mg/kg/day for 10 days): 65% | inhibition of iron-induced lipid peroxidation and occlusive thrombus (occlusive thrombus; 100 mg/kg/day for 10 days): significantly more effective than αT supplementation | potency relative to αT at inhibition of thrombogenic correlates, referred to plasma tocopherol concentrations (occlusive thrombus): 20-30 times | inhibition of platelet aggregation kinetics relative to αT supplementation (platelet aggregation): 2 fold | increase of own plasma tocopherol level above baseline [3]: 6 fold | plasma γT concentration as percent of the γT concentration (so in the source) ([3]; γT supplemented rats): ≤ 10% | superoxide dismutase activity in aortas compared to the αT treated group (superoxide dismutase): increased significantly | incorporation into endothelial cells (endothelial cells): more rapidly than is αT | absorption by the gut ([4]; in vivo): absorbed equally well | packaging into lipoproteins ([4]; in vivo): less effectively than αT
